# Where two headings read alike, the source gives them in different places.
# Target: T1, His6-TEV-PPARγ-(234-505) (Homo sapiens, UniProt P37231)
# T1 construct: The His6-TEV-PPARγ-(234-505) protein for assay was expressed and purified; TEV cleavage site (N); made in house
# T1 sequence (P37231 234-505): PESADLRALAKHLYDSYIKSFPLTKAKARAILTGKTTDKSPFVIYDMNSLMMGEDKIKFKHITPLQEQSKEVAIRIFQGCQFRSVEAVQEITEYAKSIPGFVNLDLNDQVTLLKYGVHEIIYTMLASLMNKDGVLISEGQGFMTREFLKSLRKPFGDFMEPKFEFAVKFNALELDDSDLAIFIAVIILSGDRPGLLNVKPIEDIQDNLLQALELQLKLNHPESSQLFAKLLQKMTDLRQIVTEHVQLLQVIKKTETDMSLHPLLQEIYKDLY
# Experiment: TR-FRET Assay to Measure Co-R Peptide Recruitment to PPARγ
# Format: biochemical
# Procedure, shortened: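 Corepressor recruitment is measured by adding terbium-labeled anti-His antibody and FITC SMRT-ID2 peptide, at 5 and 200 nM final, after a 20-minute room-temperature protein–compound incubation. After one further hour, signal is converted to percent response between DMSO and 500 nM T0070907 wells.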
# [1] = Co-R peptide recruitment to PPARγ, read-out: TR-FRET AC50
AC50 [1] [µM],"AC50 (Co-R peptide (SMRT-ID2) recruitment, top final concentration 20 μM, read-out: TR-FRET i-Ag, AC50) [µM]",Structure (SMILES)
> 1,,CC(C)CN(C)C(=O)C1CCN(C(=O)c2cc(-c3ccncc3)[nH]n2)CC1 [N-methyl-N-(2-methylpropyl)-1-[5-(pyridin-4-yl)-1H-pyrazole-3-carbonyl]piperidine-4-carboxamide]
> 1,,COc1cc(-c2cc(C(=O)N3CCC4(C(=O)NCc5cccc(Cl)c5)CC34)n[nH]2)c(Cl)cn1 (stereo not shown) [2-[5-(5-chloro-2-methoxypyridin-4-yl)-1H-pyrazole-3-carbonyl]-N-[(3-chlorophenyl)methyl]-2-azabicyclo[3.1.0]hexane-5-carboxamide]
> 1,,COc1cc(-c2cc(C(=O)N3CCC(C(=O)NC(C)c4ncccn4)CC3)n[nH]2)c(Cl)cn1 (stereo not shown) [1-[5-(5-chloro-2-methoxypyridin-4-yl)-1H-pyrazole-3-carbonyl]-N-[1-(pyrimidin-2-yl)ethyl]piperidine-4-carboxamide]
> 1,,COc1cc(-c2cc(C(=O)N3CCC(OC)(C(=O)NCc4cccc(Cl)c4)CC3)n[nH]2)c(Cl)cn1 [1-[5-(5-chloro-2-methoxypyridin-4-yl)-1H-pyrazole-3-carbonyl]-N-[(3-chlorophenyl)methyl]-4-methoxypiperidine-4-carboxamide]
> 1,,"O=C(NCc1cc(Cl)ccc1Cl)C1CCN(C(=O)c2cc(-c3ccncc3)[nH]n2)CC1 [N-[(2,5-dichlorophenyl)methyl]-1-[5-(pyridin-4-yl)-1H-pyrazole-3-carbonyl]piperidine-4-carboxamide]"
> 1,,O=C(N[C@H]1CC[C@H](O)CC1)C1CCN(C(=O)c2cc(-c3ccncc3)[nH]n2)CC1
> 1,,Cc1ccc([C@@H](C)NC(=O)C2CCN(C(=O)c3cc(-c4ccncc4)[nH]n3)CC2)cc1 [N-[(1R)-1-(4-methylphenyl)ethyl]-1-[5-(pyridin-4-yl)-1H-pyrazole-3-carbonyl]piperidine-4-carboxamide]
> 1,,COc1cc(-c2cc(C(=O)N3CCC(C(=O)NC45CCC(O)(CC4)CC5)CC3)n[nH]2)c(Cl)cn1 [1-[5-(5-chloro-2-methoxypyridin-4-yl)-1H-pyrazole-3-carbonyl]-N-{4-hydroxybicyclo[2.2.2]octan-1-yl}piperidine-4-carboxamide]
> 1,,CC[C@H](NC(=O)C1CCN(C(=O)c2cc(-c3ccncc3)[nH]n2)CC1)c1ccccc1 [N-[(1S)-1-phenylpropyl]-1-[5-(pyridin-4-yl)-1H-pyrazole-3-carbonyl]piperidine-4-carboxamide]
> 1,,O=C(NCC1CC1)C1CCN(C(=O)c2cc(-c3ccncc3)[nH]n2)CC1 [N-(cyclopropylmethyl)-1-[5-(pyridin-4-yl)-1H-pyrazole-3-carbonyl]piperidine-4-carboxamide]
> 1,,CN1CCC(N(C)C(=O)C2CCN(C(=O)c3cc(-c4ccncc4)[nH]n3)CC2)CC1 [N-methyl-N-(1-methylpiperidin-4-yl)-1-[5-(pyridin-4-yl)-1H-pyrazole-3-carbonyl]piperidine-4-carboxamide]
> 1,,COc1cc(-c2cc(C(=O)N3CC4COCC(C3)C4C(=O)NCc3cccc(Cl)c3)n[nH]2)c(Cl)cn1 (stereo not shown) [7-[5-(5-chloro-2-methoxypyridin-4-yl)-1H-pyrazole-3-carbonyl]-N-[(3-chlorophenyl)methyl]-3-oxa-7-azabicyclo[3.3.1]nonane-9-carboxamide]
> 1,,COc1cc(-c2cc(C(=O)N3CCC(C(=O)NC(C)C4COC4)CC3)n[nH]2)c(Cl)cn1 (stereo not shown) [1-[5-(5-chloro-2-methoxypyridin-4-yl)-1H-pyrazole-3-carbonyl]-N-[1-(oxetan-3-yl)ethyl]piperidine-4-carboxamide]
> 1,,"COc1cc(-c2cc(C(=O)N3CCC(C(=O)NCc4cn5ccnc5cn4)CC3)n[nH]2)c(Cl)cn1 [1-[5-(5-chloro-2-methoxypyridin-4-yl)-1H-pyrazole-3-carbonyl]-N-({imidazo[1,2-a]pyrazin-6-yl}methyl)piperidine-4-carboxamide]"
> 1,,COc1cc(-c2cc(C(=O)N3CCC(C(=O)NC4CCC(C)(OC)CC4)CC3)n[nH]2)c(Cl)cn1 (stereo not shown) [1-[5-(5-chloro-2-methoxypyridin-4-yl)-1H-pyrazole-3-carbonyl]-N-(4-methoxy-4-methylcyclohexyl)piperidine-4-carboxamide]
> 1,,CCC(CC)NC(=O)C1CCN(C(=O)c2cc(-c3ccncc3)[nH]n2)CC1 [N-(pentan-3-yl)-1-[5-(pyridin-4-yl)-1H-pyrazole-3-carbonyl]piperidine-4-carboxamide]
> 1,,"COc1cc(-c2cc(C(=O)N3CCC(C(=O)NC4CS(=O)(=O)Cc5ccccc54)CC3)n[nH]2)c(Cl)cn1 (stereo not shown) [1-[5-(5-chloro-2-methoxypyridin-4-yl)-1H-pyrazole-3-carbonyl]-N-(2,2-dioxo-3,4-dihydro-1H-2λ^6-benzothiopyran-4-yl)piperidine-4-carboxamide]"

AC50 [1] [µM],"AC50 (Co-R peptide (SMRT-ID2) recruitment, top final concentration 20 μM, read-out: TR-FRET i-Ag, AC50) [µM]",Structure (SMILES)
> 1,,CCNC(=O)C1CCN(C(=O)c2cc(-c3ccncc3)[nH]n2)CC1 [N-ethyl-1-[5-(pyridin-4-yl)-1H-pyrazole-3-carbonyl]piperidine-4-carboxamide]
> 1,,COc1cc(-c2cc(C(=O)N3CCC(C(=O)NC(C)c4cnccn4)CC3)n[nH]2)c(Cl)cn1 (stereo not shown) [1-[5-(5-chloro-2-methoxypyridin-4-yl)-1H-pyrazole-3-carbonyl]-N-[1-(pyrazin-2-yl)ethyl]piperidine-4-carboxamide]
> 1,,C[C@H]1CC[C@H](NC(=O)C2CCN(C(=O)c3cc(-c4ccncc4)[nH]n3)CC2)CC1
,0.342,"COc1cc(-c2cc(C(=O)N3CCC(C(=O)N[C@H]4CC[C@@H](C)CC4)CC3)n[nH]2)ccn1 [Example 107, 1-(5-(2-methoxypyridin-4-yl)-1H-pyrazole-3-carbonyl)-N-((1s,4s)-4-methylcyclohexyl)piperidine-4-carboxamide]"
> 1,,COc1cc(-c2cc(C(=O)N3CCC(C(=O)NCc4cc(C#N)ccn4)CC3)n[nH]2)c(Cl)cn1 [1-[5-(5-chloro-2-methoxypyridin-4-yl)-1H-pyrazole-3-carbonyl]-N-[(4-cyanopyridin-2-yl)methyl]piperidine-4-carboxamide]
> 1,,CC1CCCC(NC(=O)C2CCN(C(=O)c3cc(-c4ccncc4)[nH]n3)CC2)C1 (stereo not shown) [N-(3-methylcyclohexyl)-1-[5-(pyridin-4-yl)-1H-pyrazole-3-carbonyl]piperidine-4-carboxamide]
> 1,,O=C(Nc1cccc(C(F)(F)F)c1)C1CCN(C(=O)c2cc(-c3ccncc3)[nH]n2)CC1 [1-[5-(pyridin-4-yl)-1H-pyrazole-3-carbonyl]-N-[3-(trifluoromethyl)phenyl]piperidine-4-carboxamide]
> 1,,"COc1cc(-c2cc(C(=O)N3CCC(OCC(F)(F)F)(C(=O)NCc4cccc(Cl)c4)CC3)n[nH]2)c(Cl)cn1 [1-[5-(5-chloro-2-methoxypyridin-4-yl)-1H-pyrazole-3-carbonyl]-N-[(3-chlorophenyl)methyl]-4-(2,2,2-trifluoroethoxy)piperidine-4-carboxamide]"
> 1,,"COc1cc(-c2cc(C(=O)N3CCC(C(=O)NC4COCOC4)CC3)n[nH]2)c(Cl)cn1 [1-[5-(5-chloro-2-methoxypyridin-4-yl)-1H-pyrazole-3-carbonyl]-N-(1,3-dioxan-5-yl)piperidine-4-carboxamide]"
> 1,,"COc1cc(-c2cc(C(=O)N3CCC(C(=O)Nc4cc(C(F)(F)F)no4)CC3)n[nH]2)c(Cl)cn1 [1-[5-(5-chloro-2-methoxypyridin-4-yl)-1H-pyrazole-3-carbonyl]-N-[3-(trifluoromethyl)-1,2-oxazol-5-yl]piperidine-4-carboxamide]"
> 1,,"Cc1cc(CNC(=O)C2CCN(C(=O)c3cc(-c4ccncc4)[nH]n3)CC2)cc(C)n1 [N-[(2,6-dimethylpyridin-4-yl)methyl]-1-[5-(pyridin-4-yl)-1H-pyrazole-3-carbonyl]piperidine-4-carboxamide]"
> 1,,COc1cc(-c2cc(C(=O)N3CCC(C(=O)NCC4(C)CCCO4)CC3)n[nH]2)c(Cl)cn1 (stereo not shown) [1-[5-(5-chloro-2-methoxypyridin-4-yl)-1H-pyrazole-3-carbonyl]-N-[(2-methyloxolan-2-yl)methyl]piperidine-4-carboxamide]
> 1,,COc1cc(-c2cc(C(=O)N3CCC(C(=O)Nc4cncc(C)n4)CC3)n[nH]2)c(Cl)cn1 [1-[5-(5-chloro-2-methoxypyridin-4-yl)-1H-pyrazole-3-carbonyl]-N-(6-methylpyrazin-2-yl)piperidine-4-carboxamide]
> 1,,COc1cc(-c2cc(C(=O)N3CCC[C@H](C(=O)NCc4cccc(Cl)c4)C3)n[nH]2)c(F)cn1 [(3S)—N-[(3-chlorophenyl)methyl]-1-[5-(5-fluoro-2-methoxypyridin-4-yl)-1H-pyrazole-3-carbonyl]piperidine-3-carboxamide]
> 1,,COc1cc(-c2cc(C(=O)N3CCC(C(=O)NC4CNC(=O)C4)CC3)n[nH]2)c(Cl)cn1 (stereo not shown) [1-[5-(5-chloro-2-methoxypyridin-4-yl)-1H-pyrazole-3-carbonyl]-N-(5-oxopyrrolidin-3-yl)piperidine-4-carboxamide]
> 1,,COc1cc(-c2cc(C(=O)N3CCC(C(=O)NCC4(C)COC4)CC3)n[nH]2)c(Cl)cn1 [1-[5-(5-chloro-2-methoxypyridin-4-yl)-1H-pyrazole-3-carbonyl]-N-[(3-methyloxetan-3-yl)methyl]piperidine-4-carboxamide]
> 1,,"CN(C)[C@@H]1CCN(C(=O)C2CCN(C(=O)c3cc(-c4ccncc4)[nH]n3)CC2)C1 [(3R)—N,N-dimethyl-1-{1-[5-(pyridin-4-yl)-1H-pyrazole-3-carbonyl]piperidine-4-carbonyl}pyrrolidin-3-amine]"

# From patent US12606541B2, “PPARg modulators and methods of use” (Eisai R&D Management Co., Ltd., priority 2020, dated 2026)
